{
  "source": "patent US20170016004A1",
  "about": "“DDX5 AND ASSOCIATED NON-CODING RNAs AND MODULATION OF TH17 EFFECTOR FUNCTION” (priority 2015, published 2017)",
  "origin": "cited, not measured here",
  "system": "ileal and colonic SMAD7",
  "conditions": "oral",
  "data": [
    {"substance": "mongersen", "values": [
      {"measurement": "treatment of Crohn's Disease", "value": "used successfully"}
    ]}
  ]
}
